Consider four compounds from US8404284B2, “Medicinal and herbal composition and uses thereof” (priority 2010, dated 2013).

The subject of one data set is HIV. To be noted: LDN alone on HIV+ subjects; stated by Bihari; cited from earlier work.
For data set [1] the following is noted: cited from earlier work.
A short description of data set [2]: Treatment of mild myocarditis / tachycardia in subjects. The data set is classed as in vivo, human. The conditions noted are these: for Response of mild myocarditis: four subjects. The source says: Rogers et. al. described an IRIS case which manifested in the form of fulminant myocarditis. […] All four subjects of the instant experiment had no previous heart condition and were started with the HC alone, but were given LDN after the first mortality had occurred.
They were turned down several times to be a participant in the herbal program because they refused to take their spouse for counseling. […] They were diagnosed with borderline cardiomegaly around one year after initially testing HIV positive, and developed tachycardia, but had no subjective complaint and never developed fever. We maintained them on Lanoxin 250 μg, which controlled their heart rate below 100 beats/minute, and also started them on LDN.

The nature of data set [3]: Clinical observation of adverse effects. It is filed as in vivo, human. To be noted: 960 mg tablets daily. The protocol: Patients were tested weekly for progress and toxicities. We then determined a dose which can be tolerated by most of the patients, and recruited more subjects. In a preferred embodiment, two HC's (one each, B.I.D), approximately equal to 500 mg of the active ingredients of U.S. Pat. No. 7,556,830 per day, are administered. However, adjustments must be made according to the body weight of the subject, and lesser or higher dosages of as low as 100 mg and as high as 1 g, can be deployed. As a majority of the patients' health improved, we progressively scheduled their appointments further apart, to once every two weeks, and then, on a monthly basis.

Take `O=C1CC[C@@]2(O)[C@H]3Cc4ccc(O)c5c4[C@@]2(CCN3CC2CC2)[C@H]1O5` [Naltrexone, 17-(cyclopropylmethyl)-4,5α-epoxy-3,14-dihydroxymorphinan-6-one]: in the data set with HIV, the “Effect on CD4 count” value was “does not increase CD4 count, but only maintains its level or delays its decrease”. Further, the Bioavailability in data set [1] is 5-40%.

Regarding `C[C@H]1O[C@@H](O[C@H]2[C@@H](O)C[C@H](O[C@H]3[C@@H](O)C[C@H](O[C@H]4CC[C@@]5(C)[C@H](CC[C@@H]6[C@@H]5C[C@@H](O)[C@]5(C)[C@@H](C7=CC(=O)OC7)CC[C@]65O)C4)O[C@@H]3C)O[C@@H]2C)C[C@H](O)[C@@H]1O` [digoxin], the “Response of mild myocarditis” value in data set [2] is “responded promptly”. Besides, the Heart rate entry in data set [2] (patient, tachycardia, 250 μg) is reported as “below 100 beats/minute”.

As for `NS(=O)(=O)c1cc(C(=O)O)c(NCc2ccco2)cc1Cl` [furosemide], the “Response of mild myocarditis” value in data set [2] is recorded as “responded promptly”.

Regarding cotrimoxazole, the Bone marrow suppression entry in data set [3] is given as “several patients developed bone marrow suppression”.
